In assay [1] the target is T1, human TRPV1 (Homo sapiens, UniProt Q8NER1).
T1 construct: expressed in transfected cells
Briefly: Capsaicin Activation Assay (FLIPR intracellular Ca2+, recombinant HEK293 cells). In kind it is cell-based. The settings on record: recombinant HEK293 cells expressing hTRPV1; 50 nM capsaicin; read-out: human TRPV1 capsaicin IC50. As for the experimental part:
(i) Capsaicin Activation Assay
Dulbecco's modified Eagle medium (DMEM) (with 4.5 mg/mL glucose) and fetal bovine serum were obtained from Hyclone Laboratories, Inc. (Logan, Utah). Dulbecco's phosphate-buffered saline (DPBS) (with 1 mg/mL glucose and 3.6 mg/l Na pyruvate, without phenol red), L-glutamine, hygromycin B, and Lipofectamine® were obtained from Life Technologies (Grand Island, N.Y.). G418 sulfate was obtained from Calbiochem-Novabiochem Corp. (San Diego, Calif.). Capsaicin (8-methyl-N-vanillyl-6-nonenamide) was obtained from Sigma-Aldrich, Co. (St. Louis, Mo.). Fluo-4 AM (N-[4-[6-[(acetyloxy)-methoxy]-2,7-difluoro-3-oxo-3H-xanthen-9-yl]-2-[2-[2-[bis[2-[(acetyloxy)methoxy]-2-oxyethyl]amino]-5-methylphenoxy]ethoxy]phenyl]-N-[2-[(acetyloxy)methoxy]-2-oxyethyl]-glycine, (acetyloxy)methyl ester) was purchased from Molecular Probes (Eugene, Oreg.).
(§1) Expression plasmids encoding the hTRPV1 cDNA were transfected into HEK293 cells using Lipofectamine®. Forty-eight hours after transfection, the neomycin-resistant cells were selected with growth medium containing 800 μg/mL Geneticin (Life Technologies, formerly Gibco BRL). Surviving individual colonies were isolated and screened for TRPV1 activity. Cells expressing recombinant TRPV1 were maintained at 37° C. in DMEM containing 4 mM L-glutamine, 300 μg/mL G418 (Calbiochem) and 10% fetal bovine serum under a humidified 5% CO2 atmosphere.
The functional activity of compounds at the TRPV1 receptor was determined by measurement of intracellular Ca^2+ levels ([Ca^2+]i) using the Fluorescence Imaging Plate Reader (FLIPR)TETRA®. All compounds were tested over a 12-point one-third-log concentration range. Compound stocks, 10 mM, were prepared in DMSO, and diluted serially across a 384-well plate using a Bravo BenchCel workstation (Agilent Technologies, Santa Clara, Calif.). A stock concentration of capsaicin (10 mM) was made in DMSO, and diluted in DPBS to a final concentration of 200 nM (4×). On the day prior to the experiment, the recombinant HEK293 cells expressing human TRPV1 (hTRPV1) were removed from tissue culture flasks and plated in growth medium into black-walled clear-bottom 384-well Biocoat™ poly-D-lysine assay plates (BD Biosciences, Bedford, Mass.) using a Multidrop® dispenser (ThermoScientific, Waltham, Mass.). […] The plated cells were incubated for 90-120 minutes in the dark at room temperature and then test compound was added to each well. Three minutes later, 200 nM capsaicin (4×) solution was added to each well in an amount sufficient to provide a final assay volume of 80 μL and capsaicin concentration of 50 nM. Fluorescence readings were made at 1 to 5 second intervals over the course of the experimental run. The peak increase in relative fluorescence units (minus baseline) was calculated, and expressed as a percentage of the 50 nM capsaicin (control) response.

For assay [2], the target named is T1, human TRPV1. Briefly: Acid Activation Assay (pH 5.0, FLIPR intracellular Ca2+, recombinant HEK293 cells). In kind it is cell-based. Conditions: percentage of maximal pH 5.0-induced response remaining; HEK293 hTRPV1; max concentration 37.5 μM. Here is the method: (ii) Acid Activation Assay
Dulbecco's modified Eagle's medium (DMEM) with 4.5 mg/mL D-glucose, fetal bovine serum, L-glutamine, and 2-morpholinoethanesulfonic acid (MES) were purchased from Sigma-Aldrich Co. (St. Louis, Mo.). […] The FLIPR® Calcium 4 assay kit was purchased from Molecular Devices (Sunnyvale, Calif.).
as §1
The functional activity of compounds at the TRPV1 receptor was determined by measurement of intracellular Ca^2+ levels ([Ca^2+]i) using the Fluorescence Imaging Plate Reader (FLIPR)TETRA®. […] Compound stocks, 10 mM, were prepared in DMSO, and diluted serially across a 384-well plate using a Bravo BenchCel workstation (Agilent Technologies, Santa Clara, Calif.). On the day prior to the experiment, the recombinant HEK293 cells expressing human TRPV1 (hTRPV1) were removed from tissue culture flasks and plated in growth medium into black-walled clear-bottom 384-well Biocoat™ poly-D-lysine assay plates (BD Biosciences, Bedford, Mass.) using a Multidrop® dispenser (ThermoScientific, Waltham, Mass.). […] The plated cells were incubated for 90-120 min in the dark at 25° C. The test compounds dissolved in DMSO were then added to the plates using an Agilent Bravo workstation (Agilent Technologies Inc., Santa Clara, Calif.). Three minutes later, a pH 5.0 solution was added to each well. Reagents were delivered at a rate of 40 μL/sec, and the final assay volume was 80 μL. Acidic pH solutions were prepared by titration of DPBS/MES with 1 N HCl. The intensity of the fluorescence was captured and digitally transferred to an interfaced PC. The maximum peak measured for the concentration range tested was used to calculate the corresponding peak increase in fluorescence over baseline (relative fluorescence units) which was expressed as the percentage (max % remain) of the maximal pH 5.0-induced response.

Results on 18 compounds are retold here after patent US8859584B2, “TRPV1 antagonists” (AbbVie Inc., priority 2011, dated 2014).

The term IC50 denotes the point on the concentration scale where inhibition reaches its midpoint.

T1 sequence (Q8NER1 whole entry): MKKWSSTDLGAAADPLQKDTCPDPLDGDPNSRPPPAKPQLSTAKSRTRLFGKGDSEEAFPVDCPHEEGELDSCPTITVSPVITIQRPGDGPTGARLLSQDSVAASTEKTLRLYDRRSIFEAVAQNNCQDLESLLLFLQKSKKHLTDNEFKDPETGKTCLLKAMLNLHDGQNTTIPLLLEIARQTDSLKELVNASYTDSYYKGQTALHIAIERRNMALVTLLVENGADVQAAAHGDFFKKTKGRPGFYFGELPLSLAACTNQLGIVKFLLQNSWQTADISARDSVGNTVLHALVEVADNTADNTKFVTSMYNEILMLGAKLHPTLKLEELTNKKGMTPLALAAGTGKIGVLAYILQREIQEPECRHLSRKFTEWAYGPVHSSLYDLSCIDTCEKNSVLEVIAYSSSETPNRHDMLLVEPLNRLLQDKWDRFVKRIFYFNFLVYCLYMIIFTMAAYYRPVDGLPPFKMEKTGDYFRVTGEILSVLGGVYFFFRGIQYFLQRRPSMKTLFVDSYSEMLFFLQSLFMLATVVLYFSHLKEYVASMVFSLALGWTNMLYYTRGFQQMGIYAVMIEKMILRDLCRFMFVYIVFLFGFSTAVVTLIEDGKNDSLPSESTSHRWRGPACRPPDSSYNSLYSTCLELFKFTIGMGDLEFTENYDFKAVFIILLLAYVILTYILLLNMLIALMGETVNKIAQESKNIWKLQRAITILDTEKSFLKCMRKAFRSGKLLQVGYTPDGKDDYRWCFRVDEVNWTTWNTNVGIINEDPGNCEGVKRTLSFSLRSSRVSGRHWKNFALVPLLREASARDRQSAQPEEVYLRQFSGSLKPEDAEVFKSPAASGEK

As for `CC1(C)C[C@@H](NC(=O)Nc2ccc(F)c3c2C[C@H](O)C3)c2ccc(F)c(Cl)c2O1` [Example 147, 1-[(4R)-8-chloro-7-fluoro-2,2-dimethyl-3,4-dihydro-2H-chromen-4-yl]-3-[(2S)-7-fluoro-2-hydroxy-2,3-dihydro-1H-inden-4-yl]urea], the IC50 on human TRPV1 [1] was 0.44 µM. The “human TRPV1 H+ (max % remain)” value at human TRPV1 [2] worked out at 2%.

Take `O=C(Nc1ccc(F)c2c1C[C@@H](O)C2)N[C@@H]1CC(CF)(CF)Oc2cc(OC(F)(F)F)ccc21` [Example 159, 1-[(4R)-2,2-bis(fluoromethyl)-7-(trifluoromethoxy)-3,4-dihydro-2H-chromen-4-yl]-3-[(2R)-7-fluoro-2-hydroxy-2,3-dihydro-1H-inden-4-yl]urea]: the concentration for half-maximal inhibition (IC50) on human TRPV1 [1] was 0.42 µM. The “human TRPV1 H+ (max % remain)” value at human TRPV1 [2] is 36%.

In the case of `O=C(Nc1cccc2c1CC(O)C2)NC1CC(c2cccc(Cl)c2)Oc2ccccc21` (stereo not drawn) [Example 110, 1-[2-(3-chlorophenyl)-3,4-dihydro-2H-chromen-4-yl]-3-(2-hydroxy-2,3-dihydro-1H-inden-4-yl)urea], the IC50 on human TRPV1 [1] was 0.24 µM. The “human TRPV1 H+ (max % remain)” value at human TRPV1 [2] worked out at 59%.

Turning to `O=C(Nc1cccc2c1C[C@@H](O)C2)N[C@@H]1CC(CF)(CF)Oc2c(Cl)cccc21` [Example 75, 1-[(4R)-8-chloro-2,2-bis(fluoromethyl)-3,4-dihydro-2H-chromen-4-yl]-3-[(2S)-2-hydroxy-2,3-dihydro-1H-inden-4-yl]urea], at human TRPV1 [1], the half-maximal inhibitory concentration (IC50) was 0.12 µM. Also, the “human TRPV1 H+ (max % remain)” value on human TRPV1 [2] is given as 40%.

For the compound `O=C(Nc1cccc2c1C[C@@H](O)C2)N[C@@H]1CC2(CCC2)Oc2ccc(F)cc21` [Example 80, 1-[(4R)-6-fluoro-3,4-dihydrospiro[chromene-2,1′-cyclobutan]-4-yl]-3-[(2S)-2-hydroxy-2,3-dihydro-1H-inden-4-yl]urea], the half-maximal inhibitory concentration (IC50) on human TRPV1 [1] was found to be 0.11 µM. The “human TRPV1 H+ (max % remain)” value at human TRPV1 [2] is on record as 4%.

Take `COc1ccc2c(c1)OCCC2NC(=O)Nc1cccc2c1CC(O)C2` (stereo not drawn) [Example 107, 1-(2-hydroxy-2,3-dihydro-1H-inden-4-yl)-3-(7-methoxy-3,4-dihydro-2H-chromen-4-yl)urea]: the IC50 at human TRPV1 [1] worked out at 2.2 µM. Further, the “human TRPV1 H+ (max % remain)” value on human TRPV1 [2] came to 55%.

Take `CC1(C)C[C@@H](NC(=O)Nc2ccc(F)c3c2C[C@H](O)C3)c2ccc(F)c(F)c2O1` [Example 153, 1-[(4R)-7,8-difluoro-2,2-dimethyl-3,4-dihydro-2H-chromen-4-yl]-3-[(2S)-7-fluoro-2-hydroxy-2,3-dihydro-1H-inden-4-yl]urea]: on human TRPV1 [1], the IC50 came out at 0.76 µM. Besides, on human TRPV1 [2], the “human TRPV1 H+ (max % remain)” value stood at 2%.

For the compound `CC1(C)C[C@@H](NC(=O)Nc2cccc3c2C[C@@H](O)C3)c2ccc(OC(F)(F)F)cc2O1` [Example 72, 1-[(4R)-2,2-dimethyl-7-(trifluoromethoxy)-3,4-dihydro-2H-chromen-4-yl]-3-[(2S)-2-hydroxy-2,3-dihydro-1H-inden-4-yl]urea], on human TRPV1 [1], the IC50 came to 0.027 µM. Also, the “human TRPV1 H+ (max % remain)” value on human TRPV1 [2] was 0%.

Regarding `CC1(C)C[C@@H](NC(=O)Nc2ccc(F)c3c2C[C@H](O)C3)c2cccc(F)c2O1` [Example 136, 1-[(4R)-8-fluoro-2,2-dimethyl-3,4-dihydro-2H-chromen-4-yl]-3-[(2S)-7-fluoro-2-hydroxy-2,3-dihydro-1H-inden-4-yl]urea], at human TRPV1 [1], the IC50 worked out at 2.8 µM. For the same compound, the “human TRPV1 H+ (max % remain)” value on human TRPV1 [2] is on record as 5%.

Regarding `CC1(C)C[C@H](NC(=O)Nc2cccc3c2C[C@@H](O)C3)c2cc(F)ccc2O1` [Example 103, 1-[(4S)-6-fluoro-2,2-dimethyl-3,4-dihydro-2H-chromen-4-yl]-3-[(2S)-2-hydroxy-2,3-dihydro-1H-inden-4-yl]urea], on human TRPV1 [1], the 50% inhibitory concentration (IC50) turned out to be 28 µM. Moreover, the “human TRPV1 H+ (max % remain)” value on human TRPV1 [2] worked out at 99%.

With `O=C(Nc1ccc(F)c2c1C[C@H](O)C2)N[C@@H]1CC(CF)(CF)Oc2c1ccc(Cl)c2F` [Example 144, 1-[(4R)-7-chloro-8-fluoro-2,2-bis(fluoromethyl)-3,4-dihydro-2H-chromen-4-yl]-3-[(2S)-7-fluoro-2-hydroxy-2,3-dihydro-1H-inden-4-yl]urea], the IC50 at human TRPV1 [1] was found to be 0.4 µM. The “human TRPV1 H+ (max % remain)” value at human TRPV1 [2] came out at 2%.

As for `CC1(C)C[C@@H](NC(=O)Nc2ccc(F)c3c2C[C@@H](O)C3)c2cccc(F)c2O1` [Example 157, 1-[(4R)-8-fluoro-2,2-dimethyl-3,4-dihydro-2H-chromen-4-yl]-3-[(2R)-7-fluoro-2-hydroxy-2,3-dihydro-1H-inden-4-yl]urea], the IC50 at human TRPV1 [1] worked out at 1.8 µM. In addition, at human TRPV1 [2], the “human TRPV1 H+ (max % remain)” value worked out at 59%.

Regarding `O=C(Nc1cccc2c1C[C@@H](O)C2)N[C@H]1CC(CF)(CF)Oc2cc(Cl)ccc21` [Example 98, 1-[(4S)-7-chloro-2,2-bis(fluoromethyl)-3,4-dihydro-2H-chromen-4-yl]-3-[(2S)-2-hydroxy-2,3-dihydro-1H-inden-4-yl]urea], the IC50 at human TRPV1 [1] was 0.5 µM. Besides, the “human TRPV1 H+ (max % remain)” value at human TRPV1 [2] came out at 13%.

In the case of `O=C(Nc1cccc2c1C[C@H](O)C2)N[C@@H]1CC2(CCC2)Oc2ccccc21` [Example 22, 1-[(4R)-3,4-dihydrospiro[chromene-2,1′-cyclobutan]-4-yl]-3-[(2R)-2-hydroxy-2,3-dihydro-1H-inden-4-yl]urea], the concentration for half-maximal inhibition (IC50) at human TRPV1 [1] was 0.078 µM. In addition, the “human TRPV1 H+ (max % remain)” value on human TRPV1 [2] stood at 73%.

In the case of `CCC1(CC)C[C@@H](NC(=O)Nc2cccc3c2C[C@H](O)C3)c2ccc(C(F)(F)F)cc2O1` [Example 53, 1-[(4R)-2,2-diethyl-7-(trifluoromethyl)-3,4-dihydro-2H-chromen-4-yl]-3-[(2R)-2-hydroxy-2,3-dihydro-1H-inden-4-yl]urea], the 50% inhibitory concentration (IC50) at human TRPV1 [1] is 0.051 µM. Moreover, the “human TRPV1 H+ (max % remain)” value at human TRPV1 [2] is 37%.

With `O=C(Nc1ccc(F)c2c1C[C@@H](O)C2)N[C@@H]1CC(CF)(CF)Oc2ccccc21` [Example 169, 1-[(4R)-2,2-bis(fluoromethyl)-3,4-dihydro-2H-chromen-4-yl]-3-[(2R)-7-fluoro-2-hydroxy-2,3-dihydro-1H-inden-4-yl]urea], at human TRPV1 [1], the IC50 is 3.4 µM. Besides, the “human TRPV1 H+ (max % remain)” value at human TRPV1 [2] amounted to 57%.

Take `O=C(Nc1cccc2c1CC(O)C2)NC1CC(c2ccccc2)Oc2ccccc21` (stereo not drawn) [Example 118, 1-(2-hydroxy-2,3-dihydro-1H-inden-4-yl)-3-(2-phenyl-3,4-dihydro-2H-chromen-4-yl)urea]: at human TRPV1 [1], the 50% inhibitory concentration (IC50) turned out to be 0.061 µM. Also, at human TRPV1 [2], the “human TRPV1 H+ (max % remain)” value is on record as 67%.

On to `CC1(C)C[C@@H](NC(=O)Nc2ccc(F)c3c2C[C@@H](O)C3)c2cccc(C(F)(F)F)c2O1` [Example 156, 1-[(4R)-2,2-dimethyl-8-(trifluoromethyl)-3,4-dihydro-2H-chromen-4-yl]-3-[(2R)-7-fluoro-2-hydroxy-2,3-dihydro-1H-inden-4-yl]urea], for which the IC50 on human TRPV1 [1] was determined as 0.061 µM. Also, on human TRPV1 [2], the “human TRPV1 H+ (max % remain)” value worked out at 40%.
